ChEMBL document CHEMBL1131339 (J Med Chem, 1998)

What was measured:
[1] = test system: Melanophore; experiment: Effective concentration required to produce 50% of the maximal pigment aggregation in Xenopus laevis dermal melanophore cell line; type: functional, cell-based, frog
[2] = test system: Melanophore; experiment: Inhibitory concentration against melatonin-induced pigment aggregation by 50% in Xenopus laevis dermal melanophore cell line; type: functional, cell-based, frog
[3] = target: Melatonin receptor (Gallus gallus, UniProt P49288+P51050+P49285); experiment: Binding affinity towards melatonin receptor, determined in chicken brain membranes using [2-125I]melatonin; type: cell membranes, Membrane
[4] = test system: Melanophore; experiment: Effective concentration required to produce 50% of the maximal pigment aggregation in Xenopus laevis dermal melanophore cell line; No agonist effect detected at 100 uM; type: functional, cell-based, frog
[5] = test system: Melanophore; experiment: Inhibitory concentration against melatonin-induced pigment aggregation by 50% in Xenopus laevis dermal melanophore cell line; Antagonism detected at 100 uM but IC50 not calculated; type: functional, cell-based, frog

| Compound | EC50 ([1]; Xenopus laevis, Melanophore) | IC50 [2] | Ki [3] | EC50 [4] | IC50 [5] | EC50 ([1]; melanophore) |
| --- | --- | --- | --- | --- | --- | --- |
| CCC(=O)NCC1CCCc2c1c1ccccc1n2C (configuration not stated) | 862 nM | Not Active | 204 nM | – | – | – |
| CCC(=O)NCC1CCCc2c1c1cc(OC)ccc1n2C (configuration not stated) | 0.31 nM | Not Active | 1.44 nM | – | – | – |
| Cn1c2c(c3cc(OC(F)(F)F)ccc31)C(CNC(=O)C1CCC1)CCC2 (configuration not stated) | – | 41000 nM | 1240 nM | Not Active | – | – |
| Cn1c2c(c3ccccc31)C(CNC(=O)C1CCC1)CC2 (configuration not stated) | – | 50000 nM | 5700 nM | Not Active | – | – |
| COc1ccc2c(c1)c1c(n2C)CCCCC1CNC(C)=O (configuration not stated) | 258 nM | 10000 nM | 24 nM | – | – | – |
| Cn1c2c(c3ccccc31)C(CNC(=O)C1CC1)CCC2 (configuration not stated) | – | 15000 nM | 4460 nM | Not Active | – | – |
| CCC(=O)NCC1CCCc2c1c1cc(OC(F)(F)F)ccc1n2C (configuration not stated) | 733 nM | 6000 nM | 40.2 nM | – | – | – |
| CC(=O)NCC1CCc2c1c1ccccc1n2C (configuration not stated) | 6360 nM | Not Active | 516 nM | – | – | – |
| Cn1c2c(c3cc(Cl)ccc31)C(CNC(=O)C1CC1)CCC2 (configuration not stated) | 1510 nM | 33000 nM | 131.6 nM | – | – | – |
| CC(=O)NCC1CCCc2c1c1cc(Cl)ccc1n2C (configuration not stated) | 5.2 nM | Not Active | 2.12 nM | – | – | – |
| CCCC(=O)NCC1CCc2c1c1cc(OC)ccc1n2C (configuration not stated) | 335 nM | 14000 nM | 23 nM | – | – | – |
| CCCC(=O)NCC1CCCc2c1c1cc(OC)ccc1n2C (configuration not stated) | 0.44 nM | Not Active | 0.378 nM | – | – | – |
| CCCC(=O)NCC1CCc2c1c1ccccc1n2C (configuration not stated) | 2630 nM | – | 239 nM | – | Antagonist | – |
| CC(=O)NCC1CCCc2c1c1cc(C)ccc1n2C (configuration not stated) | 108 nM | Not Active | 16.1 nM | – | – | – |
| Cn1c2c(c3ccccc31)C(CNC(=O)C1CCC1)CCCC2 (configuration not stated) | – | 44000 nM | 1690 nM | Not Active | – | – |
| CCC(=O)NCC1CCCc2c1c1cc(C)ccc1n2C (configuration not stated) | 128 nM | Not Active | 7.66 nM | – | – | – |
| CCCCC(=O)NCC1CCCc2c1c1ccccc1n2C (configuration not stated) | – | 17000 nM | > 10000 nM | Not Active | – | – |
| CCCCC(=O)NCC1CCCCc2c1c1ccccc1n2C (configuration not stated) | – | 42000 nM | 8300 nM | Not Active | – | – |
| CCC(=O)NCC1CCCCc2c1c1ccccc1n2C (configuration not stated) | – | – | 129 nM | Not Active | Antagonist | – |
| Cc1ccc2c(c1)c1c(n2C)CCCC1CNC(=O)C1CCC1 (configuration not stated) | 1450 nM | Not Active | 555 nM | – | – | – |
| COc1ccc2c(c1)c1c(n2C)CCCCC1CNC(=O)C1CC1 (configuration not stated) | 470 nM | 43000 nM | 44.7 nM | – | – | – |
| CCC(=O)NCC1CCCc2c1c1cc(CC)ccc1n2C (configuration not stated) | 305 nM | 62000 nM | 27.5 nM | – | – | – |
| COc1ccc2c(c1)c1c(n2C)CCC1CNC(=O)C1CC1 (configuration not stated) | – | 11000 nM | 459 nM | Not Active | – | – |
| CCC(=O)NC1CCc2[nH]c3ccc(OC)cc3c2C1 (configuration not stated) | 7 nM | Not Active | – | – | – | – |

| Compound | EC50 ([1]; Xenopus laevis, Melanophore) | IC50 [2] | Ki [3] | EC50 [4] | IC50 [5] | EC50 ([1]; melanophore) |
| --- | --- | --- | --- | --- | --- | --- |
| COc1ccc2[nH]c3c(c2c1)CC(NC(=O)C1CC1)CC3 (configuration not stated) | 195 nM | Not Active | 143 nM | – | – | – |
| O=C(NC1CCc2[nH]c3ccccc3c2C1)C(F)(F)F (configuration not stated) | – | 43000 nM | – | Not Active | – | – |
| CCCC(=O)NC1CCc2[nH]c3ccc(OC)cc3c2C1 (configuration not stated) | 25 nM | Not Active | – | – | – | – |
| O=C(CBr)NC1CCc2[nH]c3ccccc3c2C1 (configuration not stated) | – | 39000 nM | – | Not Active | – | – |
| CCCC(=O)NCC1CCCCc2c1c1cc(OC)ccc1n2C (configuration not stated) | 140 nM | – | 10.3 nM | – | Antagonist | – |
| COc1ccc2c(c1)c1c(n2C)CCCC1CNC(=O)C1CCC1 (configuration not stated) | 139 nM | Not Active | 271 nM | – | – | – |
| Cn1c2c(c3ccccc31)C(CNC(=O)C(F)(F)F)CCCC2 (configuration not stated) | – | Not Active | > 10000 nM | Not Active | – | – |
| CCC(=O)NCC1CCc2c1c1ccccc1n2C (configuration not stated) | 4040 nM | – | 272 nM | – | Antagonist | – |
| COc1ccc2c(c1)c1c(n2C)CCCCC1CNC(=O)C1CCC1 (configuration not stated) | – | 18000 nM | 144.8 nM | Not Active | – | – |
| CC(=O)NCC1CCCc2c1c1cc(OC(F)(F)F)ccc1n2C (configuration not stated) | 2030 nM | 42000 nM | 141.7 nM | – | – | – |
| CCCCC(=O)NCC1CCCc2c1c1cc(OC)ccc1n2C (configuration not stated) | 132 nM | Not Active | 82 nM | – | – | – |
| CCCCC(=O)NCC1CCc2c1c1ccccc1n2C (configuration not stated) | – | 46000 nM | > 10000 nM | Not Active | – | – |
| Cn1c2c(c3cc(Cl)ccc31)C(CNC(=O)C1CCC1)CCC2 (configuration not stated) | – | 14000 nM | 187.2 nM | Not Active | – | – |
| CCCCC(=O)NCC1CCCCc2c1c1cc(OC)ccc1n2C (configuration not stated) | – | 39000 nM | 471 nM | Not Active | – | – |
| Cn1c2c(c3ccccc31)C(CNC(=O)C1CC1)CC2 (configuration not stated) | – | 59000 nM | 5100 nM | Not Active | – | – |
| CC(=O)NCC1CCCCc2c1c1ccccc1n2C (configuration not stated) | – | 54000 nM | 424 nM | Not Active | – | – |
| CCCC(=O)NCC1CCCc2c1c1ccccc1n2C (configuration not stated) | 966 nM | Not Active | 215 nM | – | – | – |
| COc1ccc2c(c1)c1c(n2C)CCC1CNC(C)=O (configuration not stated) | 423 nM | Not Active | 161 nM | – | – | – |
| Cn1c2c(c3ccccc31)C(CNC(=O)C1CC1)CCCC2 (configuration not stated) | – | 56000 nM | 1220 nM | Not Active | – | – |
| COc1ccc2c(c1)c1c(n2C)CCCC1CNC(=O)C(F)(F)F (configuration not stated) | 2.1 nM | Not Active | 1.98 nM | – | – | – |
| COc1ccc2[nH]c3c(c2c1)CC(NC(=O)CBr)CC3 (configuration not stated) | 32 nM | 11000 nM | – | – | – | – |
| CCCC(=O)NC1CCc2[nH]c3ccccc3c2C1 (configuration not stated) | 12600 nM | Not Active | – | – | – | – |
| CCC(Br)C(=O)NC1CCc2[nH]c3ccccc3c2C1 (configuration not stated) | – | 32000 nM | > 10000 nM | Not Active | – | – |
| COc1ccc2[nH]c3c(c2c1)CC(NC(C)=O)CC3 (configuration not stated) | 32 nM | Not Active | – | – | – | – |

| Compound | EC50 ([1]; Xenopus laevis, Melanophore) | IC50 [2] | Ki [3] | EC50 [4] | IC50 [5] | EC50 ([1]; melanophore) |
| --- | --- | --- | --- | --- | --- | --- |
| CCC(=O)NC1CCc2[nH]c3ccccc3c2C1 (configuration not stated) | 3270 nM | Not Active | – | – | – | – |
| COc1ccc2[nH]c3c(c2c1)CC(NC(=O)C(F)(F)F)CC3 (configuration not stated) | 32 nM | Not Active | – | – | – | – |
| CC(=O)NC1CCc2[nH]c3ccccc3c2C1 (configuration not stated) | – | 64000 nM | – | Not Active | – | – |
| Cn1c2c(c3ccccc31)C(CNC(=O)C(F)(F)F)CCC2 (configuration not stated) | – | 35000 nM | > 10000 nM | Not Active | – | – |
| COc1ccc2c(c1)c1c(n2C)CCCC1CNC(=O)C1CC1 (configuration not stated) | 119 nM | 48000 nM | 30 nM | – | – | – |
| CCCC(=O)NCC1CCCCc2c1c1ccccc1n2C (configuration not stated) | – | 53000 nM | 84 nM | Not Active | – | – |
| Cn1c2c(c3ccccc31)C(CNC(=O)C(F)(F)F)CC2 (configuration not stated) | – | Not Active | > 10000 nM | Not Active | – | – |
| O=C(NCCc1c(-c2ccccc2)[nH]c2ccccc12)C1CCC1 | – | 3400 nM | 565 nM | Not Active | – | – |
| CC(=O)NCC1CCCc2c1c1ccccc1n2C (single isomer, unassigned; (+)) | – | 6400 nM | 708 nM | Not Active | – | – |
| CCC(=O)NCC1CCc2c1c1cc(OC)ccc1n2C (single isomer, unassigned; (+)) | – | Not Active | 243 nM | – | – | 789 nM |
| CCC(=O)NCC1CCCCc2c1c1cc(OC)ccc1n2C (single isomer, unassigned; (+)) | – | Not Active | 201.5 nM | Not Active | – | – |
| COc1ccc2c(c1)c1c(n2C)CCCC1CNC(C)=O (single isomer, unassigned; (+)) | – | – | 48.4 nM | – | – | 14.8 nM |
| CC(=O)NCC1CCCc2c1c1ccccc1n2C (single isomer, unassigned; (-)) | – | – | 40 nM | – | – | 189 nM |
| CCC(=O)NCC1CCc2c1c1cc(OC)ccc1n2C (single isomer, unassigned; (-)) | – | – | 1.7 nM | – | – | 3.4 nM |
| COc1ccc2c(c1)c1c(n2C)CCCC1CNC(C)=O (single isomer, unassigned; (-)) | – | – | 0.372 nM | – | – | 0.3 nM |
| CC(=O)NCC1CCCc2c1c1ccccc1n2C (stereo in doubt; 9a) | – | Not Active | 227 nM | – | – | 599 nM |
| COc1ccc2c(c1)c1c(n2C)CCCC1CNC(C)=O (stereo in doubt; 9g) | – | Not Active | – | – | – | 0.7 nM |
| CCC(=O)NCC1CCc2c1c1cc(OC)ccc1n2C (stereo in doubt; 10i) | – | – | 16 nM | – | – | 408 nM |
| CCC(=O)NCC1CCCCc2c1c1cc(OC)ccc1n2C (stereo in doubt; 11i(-)) | – | – | 6.5 nM | – | – | 118 nM |
| CCC(=O)NCC1CCCCc2c1c1cc(OC)ccc1n2C (stereo in doubt; 11i) | 91 nM | – | 7 nM | – | Antagonist | – |
| CC(=O)NCCc1c(Cc2ccccc2)[nH]c2ccccc12 [LUZINDOLE] | – | 2100 nM | 1606 nM | Not Active | – | – |
| COc1ccc2[nH]cc(CCNC(C)=O)c2c1 [MELATONIN] | 0.23 nM | Not Active | – | – | – | – |
